Values after ≈ are worked out from the molar mass of the structure shown. Read-outs that look alike come from different tables or passages of the source.
Tests used:
Assay in all cases: Antibacterial activity, MIC by microdilution broth method (CLSI)
E. faecium = type: cell-based, Enterococcus faecium; conditions: Enterococcus faecium
E. faecalis = type: cell-based; conditions: for MIC: Enterococcus faecalis; for MIC (range over strains): clinically isolated E. faecalis (15 strains)
S. aureus = type: cell-based, Staphylococcus aureus; conditions: for MIC: Staphylococcus aureus
[1] = ATCC35667, 20 h, E. faecium ATCC 35667, CA-MHB, 37 °C, 20 h, read-out: MIC
[2] = clinically isolated E. faecium strain 7, read-out: MIC
[3] = ATCC 51299 / VRE, E. faecalis (VRE) ATCC 51299
[4] = clinically isolated E. faecalis strain 21
[5] = clinically isolated E. faecalis strain 22
[6] = clinically isolated E. faecalis strain 23
[7] = clinically isolated E. faecalis strain 24
[8] = clinically isolated E. faecalis strain 25
[9] = clinically isolated E. faecalis strain 26
[10] = clinically isolated E. faecalis strain 27
[11] = clinically isolated E. faecalis strain 28
[12] = clinically isolated E. faecalis strain 29
[13] = clinically isolated E. faecalis strain 30
[14] = clinically isolated E. faecalis strain 31
[15] = clinically isolated E. faecalis strain 32
[16] = clinically isolated E. faecalis strain 33
[17] = clinically isolated E. faecalis strain 34
[18] = clinically isolated E. faecalis strain 35
[19] = ATCC29213, 20 h, S. aureus ATCC 29213, CA-MHB, 37 °C, 20 h
[20] = MRSA, 20 h, S. aureus (MRSA) JE2, CA-MHB, 37 °C, performed once
[21] = MRSA, clinically isolated MRSA #1958
[22] = MRSA, clinically isolated MRSA #2071
[23] = MRSA, clinically isolated MRSA #2110
[24] = MRSA, clinically isolated MRSA #2310
[25] = MRSA, clinically isolated MRSA #2334
[26] = MRSA, clinically isolated MRSA #2931
[27] = MRSA, clinically isolated MRSA #2932
[28] = MRSA, clinically isolated MRSA #2933
[29] = MRSA, clinically isolated MRSA #2934
[30] = MRSA, clinically isolated MRSA #2935

How did the MIC (E. faecium; [1]) turn out when C[C@H]1COc2c(N3CCN(C)CC3)c(F)cc3c(=O)c(C(=O)O)cn1c23 [Levofloxacin] was run?
The MIC was 4 µg/mL (≈ 11.1 µM).

What about the MIC (E. faecium; ATCC 51559 / VRE, E. faecium (VRE) ATCC 51559, read-out: MIC) of the same compound?
The MIC was 16 µg/mL (≈ 44.3 µM).

What about the MIC (E. faecium; ATCC 51858 / VRE, E. faecium (VRE) ATCC 51858, read-out: MIC) of the same compound?
The MIC was 4 µg/mL (≈ 11.1 µM).

What about the MIC (E. faecium; clinically isolated E. faecium strain 1, read-out: MIC) of the same compound?
Its MIC is over 32 µg/mL.

What about the MIC (E. faecium; clinically isolated E. faecium strain 2, read-out: MIC) of the same compound?
Its MIC is over 32 µg/mL.

What about the MIC (E. faecium; clinically isolated E. faecium strain 3, read-out: MIC) of the same compound?
The MIC was over 32 µg/mL.

What about the MIC (E. faecium; clinically isolated E. faecium strain 4, read-out: MIC) of the same compound?
Its MIC is over 32 µg/mL.

And the MIC (E. faecium; clinically isolated E. faecium strain 5, read-out: MIC)?
The MIC was 32 µg/mL (≈ 88.6 µM).

And the MIC (E. faecium; [2])?
Its MIC is 0.5 µg/mL (≈ 1.38 µM).

And the MIC (E. faecium; clinically isolated E. faecium strain 8, read-out: MIC)?
The MIC was over 32 µg/mL.

What about the MIC (E. faecium; clinically isolated E. faecium strain 9, read-out: MIC) of the same compound?
The MIC was over 32 µg/mL.

And the MIC (E. faecium; clinically isolated E. faecium strain 10, read-out: MIC)?
The MIC was over 32 µg/mL.

And the MIC (E. faecium; clinically isolated E. faecium strain 11, read-out: MIC)?
The MIC was over 32 µg/mL.

What about the MIC (E. faecium; clinically isolated E. faecium strain 13, read-out: MIC) of the same compound?
Its MIC is over 32 µg/mL.

And the MIC (E. faecium; clinically isolated E. faecium strain 14, read-out: MIC)?
The MIC was over 32 µg/mL.

And the MIC (E. faecium; clinically isolated E. faecium strain 15, read-out: MIC)?
Its MIC is over 32 µg/mL.

And the MIC (E. faecalis; [3])?
The MIC was 1 µg/mL (≈ 2.77 µM).

And the MIC (E. faecalis; [4])?
Its MIC is 0.5 µg/mL (≈ 1.38 µM).

What about the MIC (E. faecalis; [5]) of the same compound?
Its MIC is 1 µg/mL (≈ 2.77 µM).

And the MIC (E. faecalis; [6])?
The MIC was 1 µg/mL (≈ 2.77 µM).

What about the MIC (E. faecalis; [7]) of the same compound?
The MIC was 1 µg/mL (≈ 2.77 µM).

And the MIC (E. faecalis; [8])?
Its MIC is 0.5 µg/mL (≈ 1.38 µM).

And the MIC (E. faecalis; [9])?
Its MIC is 0.5 µg/mL (≈ 1.38 µM).

What about the MIC (E. faecalis; [10]) of the same compound?
Its MIC is 1 µg/mL (≈ 2.77 µM).

And the MIC (E. faecalis; [11])?
Its MIC is 1 µg/mL (≈ 2.77 µM).

What about the MIC (E. faecalis; [12]) of the same compound?
The MIC was 0.5 µg/mL (≈ 1.38 µM).

And the MIC (E. faecalis; [13])?
The MIC was 1 µg/mL (≈ 2.77 µM).

And the MIC (E. faecalis; [14])?
Its MIC is 1 µg/mL (≈ 2.77 µM).

What about the MIC (E. faecalis; [15]) of the same compound?
Its MIC is 1 µg/mL (≈ 2.77 µM).

And the MIC (E. faecalis; [16])?
Its MIC is 1 µg/mL (≈ 2.77 µM).

What about the MIC (E. faecalis; [17]) of the same compound?
The MIC was 1 µg/mL (≈ 2.77 µM).

And the MIC (E. faecalis; [18])?
Its MIC is 2 µg/mL (≈ 5.53 µM).

What about the “MIC (range over strains)” value (E. faecalis) of the same compound?
The value was 0.5 to 2 µg/mL.

And the MIC (S. aureus; [19])?
The MIC was 0.13 µg/mL (≈ 0.36 µM).

What about the MIC (S. aureus; [20]) of the same compound?
Its MIC is 8 µg/mL (≈ 22.1 µM).

And the MIC (S. aureus; [21])?
The MIC was over 32 µg/mL.

What about the MIC (S. aureus; [22]) of the same compound?
Its MIC is 0.13 µg/mL (≈ 0.36 µM).

What about the MIC (S. aureus; [23]) of the same compound?
Its MIC is over 32 µg/mL.

And the MIC (S. aureus; [24])?
Its MIC is over 32 µg/mL.

What about the MIC (S. aureus; [25]) of the same compound?
The MIC was over 32 µg/mL.

What about the MIC (S. aureus; [26]) of the same compound?
The MIC was 16 µg/mL (≈ 44.3 µM).

What about the MIC (S. aureus; [27]) of the same compound?
The MIC was over 32 µg/mL.

And the MIC (S. aureus; [28])?
Its MIC is over 32 µg/mL.

And the MIC (S. aureus; [29])?
Its MIC is over 32 µg/mL.

And the MIC (S. aureus; [30])?
Its MIC is over 32 µg/mL.

For CC1(C)S[C@@H]2[C@H](NC(=O)[C@H](N)c3ccccc3)C(=O)N2[C@H]1C(=O)O [Ampicillin], which MIC (E. faecium; [1]) is on record?
The MIC was 1 µg/mL (≈ 2.86 µM).

What about the MIC (E. faecium; ATCC 51559 / VRE, E. faecium (VRE) ATCC 51559) of the same compound?
Its MIC is 128 µg/mL (≈ 366 µM).

What about the MIC (E. faecium; ATCC 51858 / VRE, E. faecium (VRE) ATCC 51858) of the same compound?
Its MIC is 128 µg/mL (≈ 366 µM).

What about the MIC (E. faecium; clinically isolated E. faecium strain 1) of the same compound?
Its MIC is over 128 µg/mL.

What about the MIC (E. faecium; clinically isolated E. faecium strain 2) of the same compound?
The MIC was 128 µg/mL (≈ 366 µM).

What about the MIC (E. faecium; clinically isolated E. faecium strain 3) of the same compound?
Its MIC is over 128 µg/mL.

What about the MIC (E. faecium; clinically isolated E. faecium strain 4) of the same compound?
The MIC was 128 µg/mL (≈ 366 µM).

And the MIC (E. faecium; clinically isolated E. faecium strain 5)?
Its MIC is 128 µg/mL (≈ 366 µM).

And the MIC (E. faecium; [2])?
The MIC was 0.5 µg/mL (≈ 1.43 µM).

What about the MIC (E. faecium; clinically isolated E. faecium strain 8) of the same compound?
Its MIC is 128 µg/mL (≈ 366 µM).

And the MIC (E. faecium; clinically isolated E. faecium strain 9)?
The MIC was over 128 µg/mL.

And the MIC (E. faecium; clinically isolated E. faecium strain 10)?
The MIC was over 128 µg/mL.

And the MIC (E. faecium; clinically isolated E. faecium strain 11)?
The MIC was 128 µg/mL (≈ 366 µM).

And the MIC (E. faecium; clinically isolated E. faecium strain 13)?
The MIC was over 128 µg/mL.

And the MIC (E. faecium; clinically isolated E. faecium strain 14)?
Its MIC is 128 µg/mL (≈ 366 µM).

What about the MIC (E. faecium; clinically isolated E. faecium strain 15) of the same compound?
Its MIC is 128 µg/mL (≈ 366 µM).

And the MIC (E. faecalis; [3])?
Its MIC is 1 µg/mL (≈ 2.86 µM).

And the MIC (E. faecalis; [4])?
Its MIC is 1 µg/mL (≈ 2.86 µM).

And the MIC (E. faecalis; [5])?
The MIC was 1 µg/mL (≈ 2.86 µM).

What about the MIC (E. faecalis; [6]) of the same compound?
Its MIC is 1 µg/mL (≈ 2.86 µM).

What about the MIC (E. faecalis; [7]) of the same compound?
Its MIC is 0.5 µg/mL (≈ 1.43 µM).

What about the MIC (E. faecalis; [8]) of the same compound?
The MIC was 1 µg/mL (≈ 2.86 µM).

What about the MIC (E. faecalis; [9]) of the same compound?
The MIC was 1 µg/mL (≈ 2.86 µM).

What about the MIC (E. faecalis; [10]) of the same compound?
The MIC was 1 µg/mL (≈ 2.86 µM).

And the MIC (E. faecalis; [11])?
Its MIC is 1 µg/mL (≈ 2.86 µM).

What about the MIC (E. faecalis; [12]) of the same compound?
The MIC was 1 µg/mL (≈ 2.86 µM).

And the MIC (E. faecalis; [13])?
The MIC was 0.5 µg/mL (≈ 1.43 µM).

What about the MIC (E. faecalis; [14]) of the same compound?
Its MIC is 1 µg/mL (≈ 2.86 µM).

What about the MIC (E. faecalis; [15]) of the same compound?
Its MIC is 1 µg/mL (≈ 2.86 µM).

What about the MIC (E. faecalis; [16]) of the same compound?
The MIC was 1 µg/mL (≈ 2.86 µM).

What about the MIC (E. faecalis; [17]) of the same compound?
The MIC was 1 µg/mL (≈ 2.86 µM).

And the MIC (E. faecalis; [18])?
Its MIC is 0.5 µg/mL (≈ 1.43 µM).

And the “MIC (range over strains)” value (E. faecalis)?
Its value is 0.5 to 1 µg/mL.

What about the MIC (S. aureus; [19]) of the same compound?
The MIC was 1 µg/mL (≈ 2.86 µM).

And the MIC (S. aureus; [20])?
The MIC was 4 µg/mL (≈ 11.4 µM).

And the MIC (S. aureus; [21])?
The MIC was 32 µg/mL (≈ 91.6 µM).

What about the MIC (S. aureus; [22]) of the same compound?
The MIC was 32 µg/mL (≈ 91.6 µM).

And the MIC (S. aureus; [23])?
Its MIC is 16 µg/mL (≈ 45.8 µM).

And the MIC (S. aureus; [24])?
Its MIC is 32 µg/mL (≈ 91.6 µM).

And the MIC (S. aureus; [25])?
Its MIC is 16 µg/mL (≈ 45.8 µM).

And the MIC (S. aureus; [26])?
Its MIC is 32 µg/mL (≈ 91.6 µM).

What about the MIC (S. aureus; [27]) of the same compound?
The MIC was 32 µg/mL (≈ 91.6 µM).

What about the MIC (S. aureus; [28]) of the same compound?
The MIC was 32 µg/mL (≈ 91.6 µM).

And the MIC (S. aureus; [29])?
Its MIC is 16 µg/mL (≈ 45.8 µM).

What about the MIC (S. aureus; [30]) of the same compound?
Its MIC is 16 µg/mL (≈ 45.8 µM).

What about the “MIC (range over strains)” value (S. aureus; clinically isolated MRSA (10 strains)) of the same compound?
Its value is 16 to 32 µg/mL.

From article PMC9768162, “Synthesis of macrocyclic nucleoside antibacterials and their interactions with MraY” (Nature Communications, 2022)
